In patent publication US20220193076A1, “METHODS OF TREATING BREAST CANCER WITH TUCATINIB” (Seagen Inc., priority 2019, published 2022):
pKi: −log10 of the molar value.

Tests used:
CYP2C8 = target: T1, CYP2C8 (Homo sapiens, UniProt P10632); assay: Ki determination in pooled human liver microsomes, amodiaquine N-deethylase (Example 5); type: in vitro ADME
T1 sequence (P10632 1-490): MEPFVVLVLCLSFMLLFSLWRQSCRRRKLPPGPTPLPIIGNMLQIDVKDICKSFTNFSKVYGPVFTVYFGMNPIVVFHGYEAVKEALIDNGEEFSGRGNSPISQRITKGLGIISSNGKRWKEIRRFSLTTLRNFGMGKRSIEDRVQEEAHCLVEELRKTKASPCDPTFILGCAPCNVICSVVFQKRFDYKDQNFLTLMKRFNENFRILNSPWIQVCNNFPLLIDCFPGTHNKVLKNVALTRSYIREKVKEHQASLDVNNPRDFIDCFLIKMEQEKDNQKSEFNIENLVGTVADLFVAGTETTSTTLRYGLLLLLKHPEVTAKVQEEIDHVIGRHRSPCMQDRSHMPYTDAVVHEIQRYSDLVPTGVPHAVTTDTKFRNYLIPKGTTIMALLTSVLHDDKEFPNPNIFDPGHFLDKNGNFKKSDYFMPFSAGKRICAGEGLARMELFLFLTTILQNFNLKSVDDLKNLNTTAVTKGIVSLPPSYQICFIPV
Description: The objective of this study was to evaluate in vitro the Ki of tucatinib of the following human hepatic cytochrome P450 (CYP) enzymes (CYP2C8, CYP2C9, and CYP3A4) and UGT1A1. […] Pooled human liver microsomes (HLM) from 150 individuals (79 males and 71 females) were obtained from BioreclamationIVT (Baltimore, Md.) and stored at approximately −70° C. The microsomes were characterized by the supplier for total protein and selected cytochrome P450 activities. […] The final organic solvent contribution was ≤1%. Incubations were terminated by the addition of chilled acetonitrile containing a stable isotope-labeled internal standard. […] Samples were analyzed by liquid chromatography with tandem mass spectrometry (LC-MS/MS). Analyte concentrations were quantified by LC-MS/MS and interpolated from standard curves of authentic analyte. […] Activities were calculated based on analyte concentration, incubation time, and protein concentration. Enzymatic activity (pmol/minute/mg protein) was expressed as the formation of the analyte per final protein concentration per incubation time. Activity remaining was expressed as the enzymatic activity at each concentration point of the test article normalized by the solvent control mean activity. […]

OAT2 = target: T2, OAT2 (Homo sapiens, UniProt Q9Y694); assay: Inhibition of OAT2 mediated transport of creatinine in transfected MDCK-II cells (Example 3); type: in vitro ADME; conditions: MDCK-II, read-out: Maximum inhibition of OAT2 mediated transport of creatinine
T2 construct: expressed in transfected cells; host or cells: MDCK-II
T2 sequence (Q9Y694 1-548): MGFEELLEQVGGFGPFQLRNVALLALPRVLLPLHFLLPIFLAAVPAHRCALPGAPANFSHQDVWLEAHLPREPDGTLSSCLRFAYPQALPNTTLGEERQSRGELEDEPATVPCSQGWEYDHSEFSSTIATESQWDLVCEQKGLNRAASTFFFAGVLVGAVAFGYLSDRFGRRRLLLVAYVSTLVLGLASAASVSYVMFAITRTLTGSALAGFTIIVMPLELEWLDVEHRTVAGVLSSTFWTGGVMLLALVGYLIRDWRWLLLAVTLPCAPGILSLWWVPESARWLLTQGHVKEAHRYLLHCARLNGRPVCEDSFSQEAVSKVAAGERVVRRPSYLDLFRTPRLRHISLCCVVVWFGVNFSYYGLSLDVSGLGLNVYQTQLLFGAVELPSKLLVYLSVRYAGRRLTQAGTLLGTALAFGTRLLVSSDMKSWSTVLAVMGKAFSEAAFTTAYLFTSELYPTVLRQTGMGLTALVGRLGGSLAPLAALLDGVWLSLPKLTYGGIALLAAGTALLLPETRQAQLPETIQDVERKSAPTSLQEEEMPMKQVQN
Description: Substrate dependent inhibition is common among transporters including MATE1 and MATE2-K. In this study, creatinine was used as the probe substrate to assess the inhibitory potency of Tucatinib and ONT-993. OAT2, OCT2, OCT3, MATE1, and MATE2-K are the renal transporters identified to transport creatinine. Tucatinib and its metabolite ONT-993 were tested as potential inhibitors of OAT2, OCT2, MATE1, and MATE2-K mediated transport using creatinine as a probe substrate.
For this study, MDCK-II were maintained in DMEM with low glucose and 10% FBS. Cells were seeded at 60K±10K cells/well on 96-well, transwell membrane plates approximately 24 hours before transfection. Transport assays were carried out approximately 48 hours after transfection. Cells were transfected and treated to express the transporter of interest or treated with a control vector. The transport of creatinine was determined by radiometric detection.
Net transporter mediated uptake of the substrate by each transporter was calculated as follows: Net Transporter Mediated Substrate Uptake (pmol/min/cm^2)=(Cellular accumulation in the presence of the transporter)−(Mean cellular accumulation in the absence of the transporter.
Percent inhibition was calculated as follows: Percent inhibition=100−(100*(transporter mediated uptake)with inhibition/(transporter mediated uptake)without inhibition) […]

CYP3A4 = CYP3A4 (Homo sapiens, UniProt P08684); assay: Example 2 Part A: effect of strong CYP3A4 inhibitor itraconazole on PK of tucatinib; type: in vivo; parameters: endogenous in cells; host or cells: healthy human subjects, in vivo; conditions: tucatinib 300 mg single dose in combination with itraconazole vs tucatinib alone
CYP3A4, sequence (P08684 whole entry): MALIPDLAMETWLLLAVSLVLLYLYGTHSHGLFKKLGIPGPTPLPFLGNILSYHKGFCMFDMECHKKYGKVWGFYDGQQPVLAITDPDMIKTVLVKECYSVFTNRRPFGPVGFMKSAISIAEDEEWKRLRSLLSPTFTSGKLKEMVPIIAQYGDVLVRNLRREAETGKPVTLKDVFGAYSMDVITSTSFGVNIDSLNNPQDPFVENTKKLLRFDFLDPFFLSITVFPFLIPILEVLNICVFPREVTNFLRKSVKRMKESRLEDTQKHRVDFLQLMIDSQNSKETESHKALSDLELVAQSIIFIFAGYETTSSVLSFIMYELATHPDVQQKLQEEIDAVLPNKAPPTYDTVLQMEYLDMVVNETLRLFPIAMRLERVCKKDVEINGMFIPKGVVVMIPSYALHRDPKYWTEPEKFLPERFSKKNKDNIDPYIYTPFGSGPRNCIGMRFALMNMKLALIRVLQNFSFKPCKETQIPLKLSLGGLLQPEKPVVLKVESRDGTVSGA
Description: A primary objective of the study is to assess the effect of a strong CYP3A4 inhibitor (itraconazole) on the single-dose PK of tucatinib. […] They were discharged on Day 8 after completion of the in-patient assessments. […] On Day 3, each subject received oral doses of 200 mg of itraconazole, twice daily (BID). From Day 4 to Day 7, each subject received single oral doses of 200 mg of itraconazole once daily (QD). Itraconazole was administered in the fed state (within 5 minutes after completion of meals). On Day 6, each subject received a single oral dose of 300 mg of tucatinib at about 2 hours after the completion of breakfast and after itraconazole in the morning. […] Other noncompartmental PK parameters may be reported. Additionally, blood samples were collected for determination of trough levels of itraconazole prior to morning dosing on the days indicated in FIG. 5.

Compound: Cc1cc(Nc2ncnc3ccc(NC4=NC(C)(C)CO4)cc23)ccc1Oc1ccn2ncnc2c1 [tucatinib]
- Inhibition mechanism, CYP2C8 (CYP2C8): competitive inhibition
- pKi (CYP2C8; marker substrate amodiaquine): 6.77
- inhibition at 10 µM (OAT2): 14.7%
- Geometric LS mean ratio (90% CI), AUC0-∞ (CYP3A4): 1.34 (1.26, 1.43)
- Geometric LS mean ratio (90% CI), AUClast (CYP3A4): 1.33 (1.25, 1.41)
- Geometric LS mean ratio (90% CI), Cmax (CYP3A4): 1.32 (1.23, 1.42)
